# Reference: patent publication US8541460B2, “PDK-1/Akt signaling inhibitors” (The Ohio State University, priority 2003, dated 2013)
# Columns and labels:
# HS 578T = experiment: NCI DTP cell line screen (SRB), Breast Cancer; assay type: cell-based
# Method: (§1) Screening of compounds 70 and 71 against several cancer cell lines The human tumor cell lines of the cancer screening panel are grown in RPMI 1640 medium containing 5% fetal bovine serum and 2 mM L-glutamine. For a typical screening experiment, cells are inoculated into 96 well microtiter plates in 100 μL at plating densities ranging from 5,000 to 40,000 cells/well depending on the doubling time of individual cell lines. After cell inoculation, the microtiter plates are incubated at 37° C., 5% CO2, 95% air and 100% relative humidity for 24 h prior to addition of experimental drugs.
# (§2) After 24 h, two plates of each cell line are fixed in situ with TCA, to represent a measurement of the cell population for each cell line at the time of drug addition (Tz). Experimental drugs are solubilized in dimethyl sulfoxide at 400-fold the desired final maximum test concentration and stored frozen prior to use. At the time of drug addition, an aliquot of frozen concentrate is thawed and diluted to twice the desired final maximum test concentration with complete medium containing 50 μg/ml gentamicin. Additional four, 10-fold or ½ log serial dilutions are made to provide a total of five drug concentrations plus control. Aliquots of 100 μl of these different drug dilutions are added to the appropriate microtiter wells already containing 100 μl of medium, resulting in the required final drug concentrations.
# (§3) Following drug addition, the plates are incubated for an additional 48 h at 37° C., 5% CO2, 95% air, and 100% relative humidity. For adherent cells, the assay is terminated by the addition of cold TCA. Cells are fixed in situ by the gentle addition of 50 μl of cold 50% (w/v) TCA (final concentration, 10% TCA) and incubated for 60 minutes at 4° C. The supernatant is discarded, and the plates are washed five times with tap water and air dried. Sulforhodamine B (SRB) solution (100 μl) at 0.4% (w/v) in 1% acetic acid is added to each well, and plates are incubated for 10 minutes at room temperature. After staining, unbound dye is removed by washing five times with 1% acetic acid and the plates are air dried. Bound stain is subsequently solubilized with 10 mM trizma base, and the absorbance is read on an automated plate reader at a wavelength of 515 nm. For suspension cells, the methodology is the same except that the assay is terminated by fixing settled cells at the bottom of the wells by gently adding 50 μl of 80% TCA (final concentration, 16% TCA). Using the seven absorbance measurements [time zero, (Tz), control growth, (C), and test growth in the presence of drug at the five concentration levels (Ti)], the percentage growth is calculated at each of the drug concentrations levels. Percentage growth inhibition is calculated as: [(Ti−Tz)/(C−Tz)]×100 for concentrations for which Ti>/=Tz [(Ti−Tz)/Tz]×100 for concentrations for which Ti<Tz
# (§4) Three dose response parameters are calculated for each experimental agent. […] The drug concentration resulting in total growth inhibition (TGI) is calculated from Ti=Tz. […] Values are calculated for each of these three parameters if the level of activity is reached; however, if the effect is not reached or is exceeded, the value for that parameter is expressed as greater or less than the maximum or minimum concentration tested.
# (§5) The methods described were used to test compounds 70 and 71 on a panel of sixty cell lines under a screening service provided by the Developmental Therapeutics Program at the National Institutes of Health. Shown in FIG. 1C are 1, RPMI-8226 leukemia cells; 2; NCI-H322M non-small cell lung cancer cells; 3, HT29 colon cancer cells; 4, U251 CNS cancer cells; 5, SK-MEL-28 melanoma cancer cells; 6, SK-OV-3 ovarian cancer cells; 7, RXF 393 renal cancer cells; 8, PC-3 prostate cancer cells; 9, MDA-MB-231 breast cancer cells.
# T-47D = experiment: NCI DTP cell line screen (SRB), Breast Cancer; assay type: cell-based
# Method: as §1, §2, §3, §4, §5
# NCI/ADR-RES = experiment: NCI DTP cell line screen (SRB), Breast Cancer; assay type: cell-based
# Method: as §1, §2, §3, §4, §5
# MDA-MB-231/ATCC = experiment: NCI DTP cell line screen (SRB), Breast Cancer; assay type: cell-based
# Method: as §1, §2, §3, §4, §5
# COLO 205 = experiment: NCI DTP cell line screen (SRB), Colon Cancer; assay type: cell-based, human
# Method: as §1, §2, §3, §4, §5
# SK-OV-3 = experiment: NCI DTP cell line screen (SRB), Ovarian Cancer; assay type: cell-based, human
# Method: as §1, §2, §3, §4, §5
# immunoprecipitated Akt = experiment: Direct inhibition of immunoprecipitated Akt kinase activity; assay type: biochemical, human
# MCF7 = experiment: NCI DTP cell line screen (SRB), Breast Cancer; assay type: cell-based, human; conditions: MCF7
# Method: as §1, §2, §3, §4, §5
# MDA-MB-435 = experiment: NCI DTP cell line screen (SRB), Breast Cancer; assay type: cell-based, human
# Method: as §1, §2, §3, §4, §5
smiles,measurement,setting,value
"NCC(=O)Nc1ccc(-n2nc(C(F)(F)F)cc2-c2ccc3c(ccc4ccccc43)c2)cc1 [Compound 70, 2-Amino-N-{4-[5-(2-phenanthrenyl)-3-(trifluoromethyl)-1H-pyrazol-1-yl]-phenyl}-acetamide]",TGI,HS 578T; HS 578T,5.25E−06
same,Percent Growth,"HS 578T; HS 578T, Log10 Concentration −4.0",−38%
same,Percent Growth,"HS 578T; HS 578T, Log10 Concentration −5.0",−34%
same,Percent Growth,"HS 578T; HS 578T, Log10 Concentration −6.0",88%
same,Percent Growth,"HS 578T; HS 578T, Log10 Concentration −7.0",99%
same,Percent Growth,"HS 578T; HS 578T, Log10 Concentration −8.0",105%
same,CC50,"HS 578T; Homo sapiens, Hs-578T, read-out: LC50",> 100 µM
same,TGI,T-47D,4.21E−06
same,Percent Growth,T-47D; Log10 Concentration −4.0,−44%
same,Percent Growth,T-47D; Log10 Concentration −5.0,−52%
same,Percent Growth,T-47D; Log10 Concentration −6.0,86%
same,Percent Growth,T-47D; Log10 Concentration −7.0,109%
same,Percent Growth,T-47D; Log10 Concentration −8.0,84%
same,TGI,NCI/ADR-RES,2.85E−06
same,Percent Growth,NCI/ADR-RES; Log10 Concentration −4.0,−62%
same,Percent Growth,NCI/ADR-RES; Log10 Concentration −5.0,−59%
same,Percent Growth,NCI/ADR-RES; Log10 Concentration −6.0,49%
same,Percent Growth,NCI/ADR-RES; Log10 Concentration −7.0,98%
same,Percent Growth,NCI/ADR-RES; Log10 Concentration −8.0,98%
same,TGI,MDA-MB-231/ATCC,2.77E−06
same,Percent Growth,MDA-MB-231/ATCC; Log10 Concentration −4.0,−52%
same,Percent Growth,MDA-MB-231/ATCC; Log10 Concentration −5.0,−73%
same,Percent Growth,MDA-MB-231/ATCC; Log10 Concentration −6.0,58%
same,Percent Growth,MDA-MB-231/ATCC; Log10 Concentration −7.0,71%
same,Percent Growth,MDA-MB-231/ATCC; Log10 Concentration −8.0,100%
same,Percent Growth,COLO 205; Log10 Concentration −4.0,1%
same,Percent Growth,COLO 205; Log10 Concentration −5.0,−53%
same,Percent Growth,COLO 205; Log10 Concentration −6.0,58%
same,Percent Growth,COLO 205; Log10 Concentration −7.0,87%
same,Percent Growth,COLO 205; Log10 Concentration −8.0,89%
same,TGI,SK-OV-3,2.96E−06
same,Percent Growth,SK-OV-3; Log10 Concentration −4.0,−24%
same,Percent Growth,SK-OV-3; Log10 Concentration −5.0,−79%
same,Percent Growth,SK-OV-3; Log10 Concentration −6.0,71%
same,Percent Growth,SK-OV-3; Log10 Concentration −7.0,98%
same,Percent Growth,SK-OV-3; Log10 Concentration −8.0,91%
same,direct inhibitory effect on immunoprecipitated Akt activity,immunoprecipitated Akt,no appreciable direct inhibition
same,Percent Growth,MCF7; Log10 Concentration −4.0,−44%
same,Percent Growth,MCF7; Log10 Concentration −5.0,−57%
same,Percent Growth,MCF7; Log10 Concentration −6.0,43%
same,Percent Growth,MCF7; Log10 Concentration −7.0,89%
same,Percent Growth,MCF7; Log10 Concentration −8.0,91%
same,TGI,MCF7; in M (unit assumed),2.72E−06
same,Percent Growth,MDA-MB-435; Log10 Concentration −4.0,−14%
same,Percent Growth,MDA-MB-435; Log10 Concentration −5.0,−69%
same,Percent Growth,MDA-MB-435; Log10 Concentration −6.0,68%
same,Percent Growth,MDA-MB-435; Log10 Concentration −7.0,98%
same,Percent Growth,MDA-MB-435; Log10 Concentration −8.0,103%
same,TGI,MDA-MB-435; in M (unit assumed),3.14E−06
